In patent US20050277656A1, “Combination comprising docetaxel and a CDK inhibitor” (Cyclacel Limited, priority 2002, published 2005):

Tests used:
[1] = system: lung cancer xenograft (LXFL H460); test: human tumour xenograft study, Experiment 2: docetaxel/roscovitine scheduling (LXFL H460); format: in vivo, nude mice (NMRI nu/nu); details: for T/C [%] day 28 / T/Copt [%] / dayopt. (day of T/Copt): single therapy: CYC202 300 mg/kg/d po bd days 0-4, 7-11, 14-18, TXT 20 mg/kg iv days 0, 14
[2] = toxicities (lethality, body weight change) in the LXFL H460 xenograft study; format: in vivo, nude mice (NMRI nu/nu); details: single therapy: CYC202 300 mg/kg/d po bd days 0-4, 7-11, 14-18, TXT 20 mg/kg iv days 0, 14; for Median BWC % (day 21): one week after last therapy of docetaxel
[3] = system: MAXF 857 primary breast cancer xenograft; details: taxotere on day 2, roscovitine on days 0-3 and 7-9 after randomization, or the combination of the two treatments
[4] = system: breast tumor cells (MDA-435); test: MTT assay, roscovitine exposure followed by docetaxel; details: single agent at 100% of its IC50 (roscovitine 15 ug/ml or Tax. […])

CC(=O)O[C@@]12CO[C@@H]1C[C@H](O)[C@@]1(C)C(=O)[C@H](O)C3=C(C)[C@@H](OC(=O)[C@H](O)[C@@H](NC(=O)OC(C)(C)C)c4ccccc4)C[C@@](O)([C@@H](OC(=O)c4ccccc4)[C@H]21)C3(C)C [docetaxel]
Tumor growth delay in relation to the vehicle treated control ([1]; LXFL H460, combination Schedule 1, or docetaxel in single therapy): 9 days | T/C [%] day 28 [1]: 27% | T/Copt [%] [1]: 12.2% | dayopt. (day of T/Copt) [1]: 10 days | T/C [%] day 28 ([1]; listed as TXT): 27.3% | Lethality n (day) [2]: 0/10 | Median BWC % (day 21) [2]: −4.2% | optimal T/C [3]: 21% | % Response [4]: 40.7%

CC[C@H](CO)Nc1nc(NCc2ccccc2)c2ncn(C(C)C)c2n1 [roscovitine, 6-benzylamino-2-[(R)-1-ethyl-2-hydroxyethylamino]-9-isopropylpurine]
T/C [%] day 28 [1]: 64% | T/Copt [%] [1]: 64.3% | dayopt. (day of T/Copt) [1]: 28 days | T/C [%] day 28 ([1]; listed as CYC202): 64.3% | Median BWC % (day 21) [2]: +7.1% | optimal T/C [3]: 63% | % Abs [4]: 0% | % Response [4]: 43.3%
